Test results reported in patent publication US7390795B2, “Treatment and prevention of tissue damage” (Pentraxin Therapeutics Limited, priority 2000, dated 2008).
Where two headings read alike, the source gives them in different places.

Tests used:
C-reactive protein (CRP) = biological target: T1, C-reactive protein (CRP) (Homo sapiens, UniProt P02741); assay: Inhibition of binding of 125I radiolabelled CRP to enzyme modified low density lipoprotein immobilized in microtitre plates
T1 construct: from tissue; host or cells: Human material
T1 sequence (P02741 19-224): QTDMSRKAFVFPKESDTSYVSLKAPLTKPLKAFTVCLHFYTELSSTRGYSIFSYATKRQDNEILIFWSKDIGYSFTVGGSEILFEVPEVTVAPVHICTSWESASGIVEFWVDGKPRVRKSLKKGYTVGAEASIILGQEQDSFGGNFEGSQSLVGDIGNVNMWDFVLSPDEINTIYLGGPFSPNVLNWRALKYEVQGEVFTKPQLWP
Experimental: Screening for Inhibitors of Binding of ^125I Radiolabelled CRP to Enzyme Modified Low Density Lipoprotein Immobilized in Microtitre Plates. […] However, likely critical ligands of importance in vivo in the pathogenesis of atherothrombosis, are modified forms of low density lipoprotein. […] All wells were then washed three times with 200 μl volumes of PBS before blocking by incubation for 1 h at room temperature with 100 μl per well of 0.2 m Tris pH 8.0. The wells were then washed again 3 times with 200 μl volumes of PBS and finally emptied before adding to each one 100 μl volumes of the following reagents.

[1] = test system: experimental acute myocardial infarction produced by coronary artery ligation
Text: Induction and Measurement of Myocardial Infarction. Female Wistar rats bred at ICSM, Hammersmith campus were used at age 9-10 wk and weighed 230-280 g. […] All animals were carefully examined and were healthy before being fasted overnight prior to surgery. General anesthesia was induced with inhaled isoflurane and supplemental oxygen was provided at 1.0 liter/min. The chest was opened through the sixth intercostal space, anesthesia was discontinued but supplemental oxygen continued at 0.5 liter/min, and the pericardium was opened to allow the heart to be lifted cut of the thorax. The left anterior descending coronary artery was immediately ligated at a constant distance just below the atrium with a 5/0 silk suture, the heart was replaced and the chest closed whilst active ventilation with 100% oxygen was continued. The duration of pneumothorax was about 30 s. […] Buprenorphine 0.05 mg/kg was given immediately for post-operative analgesia and repeated 12 hourly.
Deep anesthesia was induced with isoflurane and the hearts were excised while still beating in sinus rhythm and immediately arrested in diastole by immersion in 10 ml of 30 mM KCl. They were then cleaned of any extraneous adherent tissue and weighed before being briefly chilled at −20° C. to produce sufficient rigidity to facilitate cutting into defined sections. Each heart was cut into four slices of equal thickness perpendicular to the course of the left coronary artery, starting from the apex of the heart and ending at the position of the ligature around that artery. These slices were designated A, B, C, and D starting from the apex, and each was washed with pure water and then immersed in 0.02 M phosphate buffer pH 7.4 containing 0.5 mg/ml of nitroblue tetrazolium (NBT) (Sigma) at 37° C. for 30 min. NBT stains viable but not infarcted myocardium.
After staining with NBT the slices were washed briefly in cold water before fixation in 10% buffered formalin for 48 h, and the proximal cut surface of each slice was then imaged under standard conditions with a high resolution digital camera. The captured images were coded and analyzed ‘blind’ without knowledge by the operators of the treatment received by the rat in question. Lines were drawn around the total area of the slice, the NBT negative infarct zone, and any parts of the image to be excluded from the estimation including valves, chordae tendinae, shadows and edges, and the area of the infarct was determined as a percentage of the total area. […] Statistical significance of differences between infarct sizes in different treatment groups within each experiment were sought by one way ANOVA and by Bonferroni t-tests.
In Vivo Treatments. […] Human CRP or SAP were injected i.p. at 40 mg/kg 1 h after coronary artery ligation and then at 24 h intervals until the rats were killed on day 5. The proteins were dissolved in 10 mM Tris, 140 mM NaCl, pH 8.0, also containing 2 mM CaCl2 in the case of human CRP, and the control rats received injections of the buffer alone at the same intervals.

[2] = Plasma clearance and serum concentration of injected human CRP and SAP in rats
Experimental: Human CRP or SAP were injected i.p. at 40 mg/kg 1 h after coronary artery ligation and then at 24 h intervals until the rats were killed on day 5. The proteins were dissolved in 10 mM Tris, 140 mM NaCl, pH 8.0, also containing 2 mM CaCl2 in the case of human CRP, and the control rats received injections of the buffer alone at the same intervals. […] Plasma clearance of human CRP was also studied in the same protocol in normal unoperated rats that had received cobra venom factor 24 h previously.

[3] = Experiment 2, 40 mg/kg i.p. 1 h after ligation then every 24 h, day 5
[4] = Experiment 2, 5 rats treated, 40 mg/kg i.p. daily

NCCOP(=O)(O)O [Phosphoethanolamine, phosphoethanolamine]
Inhibition of CRP binding to enzyme modified LDL, in words (C-reactive protein (CRP)): inhibition at high concentration, but only modest effects when diluted | Percent inhibition of binding of radiolabelled CRP to immobilized enzyme modified low density lipoprotein (C-reactive protein (CRP); compound molarity 1 μM): 0 | Percent inhibition of binding of radiolabelled CRP to immobilized enzyme modified low density lipoprotein (C-reactive protein (CRP); compound molarity 10 μM): 0 | Percent inhibition of binding of radiolabelled CRP to immobilized enzyme modified low density lipoprotein (C-reactive protein (CRP); compound molarity 100 μM): 39 | Percent inhibition of binding of radiolabelled CRP to immobilized enzyme modified low density lipoprotein (C-reactive protein (CRP); compound molarity 1 mM): 90 | Percent inhibition of binding of radiolabelled CRP to immobilized enzyme modified low density lipoprotein (C-reactive protein (CRP); compound molarity 10 mM): 92

CCCCCCCCCCCCCCCCOP(=O)([O-])OCC[N+](C)(C)C [Hexadecyl phosphocholine, hexadecyl phosphocholine]
Percent inhibition of binding of radiolabelled CRP to immobilized enzyme modified low density lipoprotein (C-reactive protein (CRP); compound molarity 1 μM): 0 | Percent inhibition of binding of radiolabelled CRP to immobilized enzyme modified low density lipoprotein (C-reactive protein (CRP); compound molarity 10 μM): 0 | Percent inhibition of binding of radiolabelled CRP to immobilized enzyme modified low density lipoprotein (C-reactive protein (CRP); compound molarity 100 μM): 76 | Percent inhibition of binding of radiolabelled CRP to immobilized enzyme modified low density lipoprotein (C-reactive protein (CRP); compound molarity 1 mM): 73 | Percent inhibition of binding of radiolabelled CRP to immobilized enzyme modified low density lipoprotein (C-reactive protein (CRP); compound molarity 10 mM): 94 | IC50 for inhibition of CRP binding to enzyme modified LDL (C-reactive protein (CRP); stated in words): in the micromolar range

Human CRP: isolated pure human C-reactive protein, a plasma pentraxin
Infarct size mean (SD) % ([1]; Experiment 1, 40 mg/kg i.p. 1 h after ligation then every 24 h, day 5): 21.2 (2.0) % | Day 5 survivors ([1]; Experiment 1, 5 rats treated, 40 mg/kg i.p. daily): 4 | Infarct size mean (SD) % [1, 3]: 17.6 (0.4) % | Day 5 survivors [1, 4]: 3 | Day 5 survivors ([1]; Table 3 experiment, 5 or 6 rats treated): 3 | Infarcts larger than in control untreated animals ([1]; complement sufficient rats, day 5, Table 3 experiment): approximately 40% | Clinical condition ([1]; coronary artery ligated rats, 40 mg/kg i.p.): rapidly became clinically less well than buffer-treated controls | Infarcts larger than in control rats treated with buffer or human SAP ([1]; day 5, Table 2 experiments): about 40% | Effect on the reduced infarct size in decomplemented rats ([1]; rat, in vivo): no effect at all | Infarct size mean (SD) % ([1]; rat, in vivo): 19.7 (1.6) % | Clinical condition ([1]; rats not operated on, same doses): absolutely no ill effects | Serum concentration of the injected protein ([2]; coronary artery ligated rats killed 24 h after the last of 5 daily 40 mg/kg i.p. injections): 13 to 53 µg/mL | Plasma clearance in decomplemented rats ([2]; single 40 mg/kg i.p., cobra venom factor 250 U/kg 24 h beforehand, unoperated rats): not affected by complement depletion

Human SAP: human serum amyloid P component, pentraxin closely related to CRP
Infarct size mean (SD) % [1, 3]: 12.4 (1.9) % | Day 5 survivors [1, 4]: 5 | Clinical condition ([1]; normal or coronary artery ligated rats): no adverse clinical effects

O=C(O)CN(CCN(CC(=O)O)CC(=O)O)CC(=O)O [EDTA]
Inhibition of CRP binding to enzyme modified LDL, in words (C-reactive protein (CRP)): All binding was inhibited

N[C@@H](COP(=O)(O)O)C(=O)O [Phosphoserine, phosphoserine]
Percent inhibition of binding of radiolabelled CRP to immobilized enzyme modified low density lipoprotein (C-reactive protein (CRP); compound molarity 1 μM): 0 | Percent inhibition of binding of radiolabelled CRP to immobilized enzyme modified low density lipoprotein (C-reactive protein (CRP); compound molarity 10 μM): 0 | Percent inhibition of binding of radiolabelled CRP to immobilized enzyme modified low density lipoprotein (C-reactive protein (CRP); compound molarity 100 μM): 0 | Percent inhibition of binding of radiolabelled CRP to immobilized enzyme modified low density lipoprotein (C-reactive protein (CRP); compound molarity 1 mM): 0 | Percent inhibition of binding of radiolabelled CRP to immobilized enzyme modified low density lipoprotein (C-reactive protein (CRP); compound molarity 10 mM): 38
